Holding throughout (format): cell-based
The test system of experiment [1] is HeLa cells. Put plainly: WST-1 cytotoxicity assay, HeLa. Particulars: Homo sapiens. The procedure:
(§1) We used cancer and normal cell lines purchased from ATCC (American Type Culture Collection) and ECACC (European Collection of Authenticated Cell Cultures) and stored in liquid nitrogen.
(§2) The cells were planted in 96 well plates (10^4 cells per well). […] WST-1 reactive of 10 µL was added in all wells. Following 4 h incubation, the measurements were carried out in a plate reader (Spectramax M5, BioTek, VT, USA) at wavelengths of 450 and 630 nm.
Background: Tetrazolium dyes change colour on reduction, which living cells bring about.

The subject of experiment [2] is HT-29. Put plainly: WST-1 cytotoxicity assay, HT-29. Particulars: Homo sapiens. The procedure: as §1, §2
The test system of experiment [3] is MDA-MB-231. Put plainly: WST-1 cytotoxicity assay, MDA-MB-231. Particulars: Homo sapiens. The procedure: as §1, §2
In experiment [4] the test system is PNT1-A. Put plainly: WST-1 cytotoxicity assay, PNT1-A. Particulars: Homo sapiens, PNT1A. The procedure: (§3) We used cancer and normal cell lines purchased from ATCC (American Type Culture Collection) and ECACC (European Collection of Authenticated Cell Cultures) and stored in liquid nitrogen. HT-29 (ATCC: HTB-38, colon adenoma cancer), HeLa (ATCC: CCL-2, cervix adenoma cancer cell), MDA-MB-231 (ATCC: HTB-26, breast adenoma cancer cell), and HEK-293 (ATCC: CRL-1573, embryonic kidney epithelial cell) cell lines were incubated in DMEM-F12 (Sigma-Aldrich, Germany), including 10% Fetal Bovine Serum (FBS), 100 μg/mL streptomycin/100 IU/mL penicillin, at 37 °C in an incubator containing 5% CO2, 95% air in a humid atmosphere. PNT-1A (ECACC: 95012614, normal prostate cells) cell line was incubated in RPMI-1640 medium, including %10 FBS, 100 μg/mL streptomycin/100 IU/mL penicillin, at 37 °C in an incubator containing 5% CO2, 95% air in a humid atmosphere.
(§4) The cytotoxic effects of compound E were evaluated with WST kit (Roche, Basel, Switzerland) in accordance with manufacturer protocols. The cells were planted in 96 well plates (10^4 cells per well). After 24 h of incubation, compound E at doses of 0, 2.5, 5, 10, 25, 50, 100, and 200 μM was administrated on the cell lines for 24, 48, and 72 h, and 5-FU on the control cell line with the same doses. WST-1 reactive of 10 µL was added in all wells. Following 4 h incubation, the measurements were carried out in a plate reader (Spectramax M5, BioTek, VT, USA) at wavelengths of 450 and 630 nm. Consequently, graphs were created, and the IC50 values of compound E and 5-fluorouracil were calculated. Selectivity index (SI) can be defined as the ratio of the toxic concentration of a sample against its effective compound concentration.

The subject of experiment [5] is HEK-293. Put plainly: WST-1 cytotoxicity assay, HEK-293. Particulars: Homo sapiens. The procedure: as §3, §4

For the molecule `O=c1[nH]cc(F)c(=O)[nH]1` [5-FU, 5-Fluorouracil, reference compound], the IC50 in experiment [1] (24 h) stood at 37.8 ± 4.3 µM; in experiment [1] (48 h) it was 31.2 ± 2.3 µM; in experiment [1] (72 h), 14.7 ± 0.6 µM; in experiment [2] (HT-29, 24 h), 47.3 ± 1.2 µM; in experiment [2] (HT-29, 48 h) it was 23.4 ± 2.1 µM; in experiment [2] (HT-29, 72 h), 19.3 ± 1.2 µM. The IC50 in experiment [3] (MDA-MB-231, 24 h) came to 42.6 ± 2.56 µM; in experiment [3] (MDA-MB-231, 48 h), 37.9 ± 12.3 µM; in experiment [3] (MDA-MB-231, 72 h), 21 ± 4.3 µM; in experiment [4] (24 h), 23.1 ± 4.55 µM; in experiment [4] (48 h), 21.2 ± 2.2 µM; in experiment [4] (72 h) it was 17.5 ± 7.6 µM. The IC50 in experiment [5] (HEK293, HEK-293, 24 h) was 44.6 ± 7.2 µM; in experiment [5] (HEK293, HEK-293, 48 h), 19.8 ± 2.3 µM; in experiment [5] (HEK293, HEK-293, 72 h), 14.5 ± 3.2 µM.

By IC50 is commonly meant the concentration that gives 50% inhibition. A lower IC50 goes with higher potency.

Values taken from PMC8201173, “Inhibition of Carbonic Anhydrase IX Promotes Apoptosis through Intracellular pH Level Alterations in Cervical Cancer Cells” (International Journal of Molecular Sciences, 2021).
